ChEMBL document CHEMBL3525981, “Metabolism and disposition of 14C-labeled peliglitazar in humans” (Drug Metab Dispos, 2011)

System: Homo sapiens
Assay: Drug level in human assessed as retention time treated with 10 mg, po of [14C]peliglitazar by LC-MS and LC-MS/MS analysis
Format: ADME, organism-based
Details: not given

Row | Retention_time | SMILES
1 | 18.5 min | Cc1oc(-c2ccccc2)nc1CC(=O)O
2 | 21 min | COc1ccc(OC(=O)N(CC(=O)O)[C@@H](C)c2ccc(O)cc2)cc1
3 | 39.5 min | COc1ccc(OC(=O)N(CC(=O)O)[C@@H](C)c2ccc(OCCc3nc(-c4ccccc4)oc3CO)cc2)cc1
4 | 42.3 min | COc1ccc(OC(=O)N(CC(=O)O)[C@@H](C)c2ccc(OCCc3nc(-c4ccc(O)cc4)oc3C)cc2)cc1
5 | 46.8 min | COc1ccc(OC(=O)N(CC(=O)O)[C@@H](C)c2ccc(OCC(O)c3nc(-c4ccccc4)oc3C)cc2)cc1 (stereo not given in full)
6 | 27.6 min | C[C@@H](c1ccc(OCCc2nc(-c3ccccc3)oc2CO)cc1)N(CC(=O)O)C(=O)Oc1ccc(O)cc1
7 | 32.1 min | Cc1oc(-c2ccccc2)nc1C(O)COc1ccc([C@H](C)N(CC(=O)O)C(=O)Oc2ccc(O)cc2)cc1 (stereo not given in full)
8 | 32.2 min | Cc1oc(-c2ccccc2)nc1CCOc1ccc([C@H](C)N(CC(=O)O[C@@H]2O[C@H](C(=O)O)[C@@H](O)[C@H](O)[C@H]2O)C(=O)Oc2ccc(O)cc2)cc1
9 | 48.4 min | Cc1oc(-c2ccccc2)nc1CCOc1ccc([C@H](C)N(CC(=O)O)C(=O)Oc2ccc(O)cc2)cc1

System: Homo sapiens
Assay: Drug metabolism in human assessed as retention time of parent compound at 10 mg, po by LC-MS and LC-MS/MS analysis
Format: ADME, organism-based
Details: in vivo

Row | SMILES | Retention_time
10 | COc1ccc(OC(=O)N(CC(=O)O)[14C@@H](C)c2ccc(O[14CH2]Cc3nc(-c4ccccc4)oc3C)cc2)cc1 | 65.5 min
